What was measured:
[1] = system: Mouse myoblast strain C2C12; experiment: Myoblast proliferation (MTT, OD 595 nm) under H2O2; assay type: cell-based; conditions: single component 250 nM-20 μM, 400 nM H2O2, 16 hours
Protocol: Mouse myoblast strain C2C12 was dispensed in 96-well plates at 1.5×10^3 cells/well, and then cultured in DMEM medium containing 10% fetal bovine serum (FBS) at 37° C. and 5% CO2 for one day at a low density manner. […] At 16 hours since the replacement, the wells were treated with MTT reagent and then the mouse myoblast strain C2C12 was incubated in the DMEM medium in a dark incubator for 3 hours. After removing supernatant therefrom and applying 100 μl of DMSO to the well, the optical density (OD) was measured at 595 nm. Cells were identified using a microscope.

[2] = system: Mouse myoblast strain C2C12; experiment: Myoblast differentiation (microscope; Western blot of myogenin and MHC); assay type: cell-based; conditions: for differentiation of myoblast (microscope): single component 500 nM up to 10 or 20 μM, 400 μM H2O2, 2% horse serum, 5 to 7 days
Protocol: (§1) Mouse myoblast strain C2C12 was dispensed into 12-well plates at 0.7×10^5 cells/well and then cultured to a cell density of 70 to 80%. […] Differentiation of the myoblast was induced for 5 to 7 days while the replacement of the medium occurred every other day. After the differentiation, cells were identified using a microscope (4× and 10× magnification), and cells were disrupted and then Western blot analysis was performed using differentiation markers myogenin and myosin heavy chain (MHC) antibodies.
(§2) Mouse myoblast strain C2C12 was dispensed into 12-well plates at 0.7×10^5 cells/well and then cultured to a cell density of 70 to 80%. The cells were then washed with PBS and then the medium was replaced with DMEM medium (differentiation medium) containing 2% horse serum, 400 μM H2O2, and harmol (OC-503) of 0 nM (DMSO), 500 nM, 1 μM, 2.5 μM, 5 μM, or 10 μM respectively. Differentiation of the myoblast was induced for 5 to 7 days while the replacement of the medium occurred every other day. After the differentiation, cells were identified using a microscope, and cells were disrupted, and then Western blot analysis was performed using differentiation markers myogenin and myosin heavy chain (MHC) antibodies.
as §2, with “H2O2, and calcium pantothenate (OC-504) of 0” for “H2O2, and harmol (OC-503) of 0”, “500 nM, 2.5 μM,” for “500 nM, 1 μM, 2.5 μM,”, “5 μM, 10 μM or 20” for “5 μM, or 10”, “μM or 20 μM respectively.” for “μM, or 10 μM respectively.”, “using a microscope (4× and 10× magnification), and cells” for “using a microscope, and cells”
as §1, with “disrupted,” for “disrupted”

[3] = system: mice transplanted with colorectal cancer cells CT26; experiment: Cancer-associated muscle and fat reduction (CT26 transplant + 5-FU, MRI); assay type: in vivo, mouse; conditions: for fat mass / muscle mass: CT26 + 5-FU mice, treated alone or in combination, MRI every week
Protocol: Cancer-associated sarcopenia was induced by administering 5-FU (5-fluorouracil) as an anticancer agent to mice transplanted with colorectal cancer cells CT26. […] MRI was measured every week to determine muscle and fat changes in OC-501 and 504 alone and combination-treated groups (FIG. 19).

[4] = system: tibialis anterior muscle of the mouse; experiment: Early recovery of muscle fibers after cardiotoxin injury; assay type: in vivo; conditions: alone 30 mpk, combination each 15 or 30 mpk, 3 days after cardiotoxin
[5] = system: Mesenchymal stem cells; experiment: Differentiation markers PAX7/MYF5 (Western blot) in stem cells isolated from cobratoxin-injured muscle; assay type: cell-based, mouse; conditions: OC-501 10 μM, OC-504 5 μM, individually or in combination; 4 days after the application
Protocol: Mesenchymal stem cells were isolated on day 3 after cobratoxin was inserted into the tibialis anterior muscle of the mouse. […] West blot analysis was performed using differentiation markers PAX7 (paired box protein-7) and MYF5 (Myogenic factor 5) antibodies. After the differentiation, cells were identified using a microscope (4× and 10× magnification).

[6] = anticancer drug administered to CT26-transplanted mice, MRI

Row | Compound | myoblast proliferation [1] | differentiation of myoblast (microscope) [2] | differentiation promotion (Western blot myogenin and MHC) ([2]; single component at 5 μM) | differentiation promotion (Western blot myogenin and MHC) ([2]; single component at 10 μM) | fat decrease [3, 6] [%] | muscle amount decrease [3, 6] | fat mass [3] | muscle mass [3] | muscle fiber size [4] | expression of PAX7 [5]
1 | harmol | not to promote myoblast proliferation | promoted differentiation of myoblast | increased especially | increased especially | – | – | – | – | – | –
2 | O=c1[nH]cc(F)c(=O)[nH]1 [5-FU, 5-fluorouracil] | – | – | – | – | 95 | about 40% | – | – | – | –
3 | CN(C)CCOC(c1ccccc1)c1ccccc1.Cn1c(=O)c2[nH]c(Cl)nc2n(C)c1=O [dimenhydrinate] | – | – | increased especially | – | – | – | increased | increased | well sparred | –
4 | CC(C)(CO)[C@@H](O)C(=O)NCCC(=O)O [calcium pantothenate] | not to promote myoblast proliferation | promoted differentiation of myoblast | increased especially | increased especially | – | – | increased | increased | well sparred | increased

— patent US11364244B2, “Compositions for treatment of muscular disorders” (ONCOCROSS CO., LTD., priority 2018, dated 2022)
